The source of these data is patent US20050227995A1, “Phenyl sulfoxides and phenyl sulfones” (priority 2002, published 2005).

The assay deals with Aβ release from human cell lines (H4, HEK293) stably overexpressing human APP695 with Swedish double mutation. As to the kind of experiment: Determination of the inhibition of A-beta release in cell culture (IGEN analyzer detection). Type of assay: cell-based. The note with it: H4/HEK293 cells overexpressing human APP695 Swedish mutant; supernatant analyzed after 16 h; 0.5% DMSO. The source says: Determination of the Inhibition of A-Beta Release in Cell Culture
In order to be able to measure the inhibition of Aβ release, human cell lines (H4, HEK293) which stably overexpress the 695 amino acid-long, neuronal splice variant of human APP were generated. In order to increase the generated Aβ amount further, in addition a “Swedish” familiar Alzheimer's double mutation in which the lysine and methionine residues respectively at positions 595 and 596 of the molecule APP695 are replaced by the amino acids asparagine and leucine was introduced. The cells were cultivated in Dulbecco's modified Eagles medium (DMEM, with 4500 mg/l glucose; 110 mg/l sodium pyruvate); 5% by volume fetal calf serum (FCS); 1% nonessential amino acids) to which the geniticin G418 selection marker had been added [all cell culture methods were carried out by standard methods; Sambrook, J., Fritsch, E. F., and Maniatis, T. (1989), Molecular cloning: A laboratory manual. Cold Spring Harbour Laboratory Press]. In order to test the effect of substances on the inhibition of APP processing, about 20 000 cells were diluted in a 96 multititer plate. The next day, the culture medium was removed and replaced by biotin- and serum-free medium, in which the substances were diluted to reach a concentration of 10 μM with a dimethyl sulfoxide (DMSO) content of 0.5%. 0.5% DMSO served as control. For substances showing inhibition of the Aβ generation, additionally dose-effect relations were investigated by using different concentrations. After 16 h, the supernatant was removed and analyzed.
b) Detection of Aβ with the IGEN Analyzer
The total amount of Aβ was detected using the following components: 50 μl of cell culture supernatant were mixed with 25 μl of biotinylated antibody 4G8 (recognizes amino acid 17-25 of Aβ), 25 μl of ruthenium complex-labeled antibody 6E10 (recognizes the N terminus of Aβ) and 50 μl of magnetic streptavidin-coupled beads. Aβ40 was detected by using the following components: 50 μl of cell culture supernatant were mixed with 25 μl of biotinylated antibody G2-10 (recognizes the C terminus of Aβ40), 25 μl of ruthenium complex-labeled antibody W02 (recognizes the N terminus of Aβ), and 50 μl of magnetic streptavidin-coupled beads. In parallel, serial dilutions were made with synthetic A040. The samples were shaken at room temperature and then measured using an IGEN analyzer. Typically, each sample was measured three times in at least two independent experiments. The antibodies and solutions used were prepared according to the instructions of the manufacturer of the analyzer, IGEN, Inc. (Gaitersburg, Md., USA). The measurement was likewise carried out as stated by the manufacturer.
As to `C[C@H](COC(=O)N1CCC(CCO)CC1)[C@@H](c1cc(F)ccc1F)S(=O)(=O)c1ccc(Cl)cc1` (single isomer, unassigned) [Example 42], the IC50 – broadly, the midpoint of a concentration-inhibition curve – was in the range of 10 to 100 nM.
Molecule `C[C@H](COC(=O)N1CCC(O)CC1)[C@@H](c1cc(F)ccc1F)S(=O)(=O)c1ccc(Cl)cc1` (single isomer, unassigned) [Example 43] displayed an IC50 of 10 to 100 nM.
The molecule `C[C@H](COC(=O)N1CCN(C)CC1)[C@@H](c1cc(F)ccc1F)S(=O)(=O)c1ccc(Cl)cc1` (single isomer, unassigned) [Example 95] gave an IC50 of 10 to 100 nM.
`CC(COC(=O)N1CCNC(=O)C1)C(c1cc(F)ccc1F)S(=O)(=O)c1ccc(Br)cc1` (single isomer, unassigned) [Example 100]: the IC50 lay in the range of 10 to 100 nM.
